Measured values from patent US20110053933A1, “HYDROXYQUINOXALINECARBOXAMIDE DERIVATIVE” (DAIICHI SANKYO COMPANY, LIMITED, priority 2008, published 2011).

Test system: γ-glutamyl carboxylation reaction (human Gas6 in Gas6-HEK293 cells)
Assay: Inhibitory action on γ-glutamyl carboxylation reaction (secreted γ-glutamyl carboxylated Gas6 by ELISA)
Format: cell-based
Conditions: vitamin K2 100 nM, exposure 18 to 20 hours, ELISA absorbance at 620 nm, read-out: IC50 (50% inhibitory concentration for the γ-glutamyl carboxylation reaction)
Description: Measurement of Inhibitory Action on γ-Glutamyl Carboxylation Reaction
Cells were used that expressed Gas6 excreted outside the cells when subjected to γ-glutamyl carboxylation, and inhibitory action on γ-glutamyl carboxylation reaction was assessed by measuring the secreted amount of extracellular Gas6 by ELISA method.
(A) Preparation for Assay Plate Containing Solid-Phase Anti-Human Gas6 Antibody
Goat anti-human Gas6 antibody (R&D Systems, Inc.) was diluted to 1 μg/ml with Dulbecco's phosphate-buffered saline, and 40 μl aliquots thereof were dispensed into each well of a 384-well microplate. After immobilizing the antibody to the solid phase by allowing it to stand at 4° C. overnight or at room temperature for 2 hours or more, each well was washed three times with wash buffer (10 mM Tris-HCl pH 7.4, 150 mM sodium chloride, 0.05% Tween20). After removing the supernatant, 80 μl aliquots of a 1% aqueous solution of Block Ace (Dainippon Sumitomo Pharma) were dispensed into each well and allowed to react at room temperature for 1 hour or more.
(B) Exposure of Test Compounds to Cells Stably Expressing Human Gas6
Cells that stably express human Gas6 (Gas6-HEK293), which were prepared by inserting human Gas6 gene (inserted between SalI and NotI within multiple cloning sites of pCIneo expression vector) into HEK293 cells, were grown and sub-cultured using Dulbecco's modified Eagle's medium (DMEM) containing 10% fetal calf serum (FCS). On the day before ELISA measurement, the Gas6-HEK293 cells were detached with trypsin-EDTA, dispersed in DMEM containing 10% FCS, and disseminated into each well of a 384-well, collagen type I-coated plate (Becton-Dickinson) in 30 μl aliquots containing 1.0×10^4 cells each, followed by culturing for 3 to 4 hours at 5% CO2 and 37° C. 30 μl aliquots of DMEM containing test compound solutions, prepared at various concentrations by dissolving in DMSO, and vitamin K2 at 0.1% and 100 nM, respectively (indicating final concentrations in both cases) were added to each well followed by additionally culturing for 18 to 20 hours.
(C) Quantification of γ-Glutamyl Carboxylated Gas6 by ELISA and Calculation of 50% Inhibitory Concentrations of γ-Glutamyl Carboxylation Reaction
After removing the 1% Block Ace aqueous solution from the preliminarily prepared assay plates containing solid phase anti-human Gas6 antibody, the culture supernatant of Gas6-HEK293 cells exposed to the test compounds was collected and 40 μl aliquots were dispensed into each well followed by allowing to react at room temperature for 2 hours (Step 1). The culture supernatant was removed and each well was washed three times with wash buffer. Thereafter, the same washing procedure was carried out between Steps 2 and 3 and Steps 3 and 4. Subsequently, 40 μl aliquots of mouse anti-human […] antibody (American Diagnostica inc.), adjusted to 0.5 μg/ml with immunoreaction buffer (100 mM Tris-HCl pH 7.4, 0.05% Tween20, 0.1% Block Ace), were dispensed into each well and allowed to react at room temperature for 1 hour (Step 2). Next, 40 μl aliquots of alkaline phosphatase-conjugated anti-mouse IgG antibody adjusted to 1.0 μg/ml with immunoreaction buffer were dispensed into each well and allowed to react at room temperature for 1 hour (Step 3). 40 μl aliquots of BluePhos Microwell (KPL) were dispensed into each well, and after incubating at room temperature for 10 minutes (Step 4), 20 μl aliquots of 5% EDTA were added to each well to stop the color development reaction, followed by measurement of absorbance at 620 nm (Step 5). […]

| Structure (SMILES) | IC50 |
| --- | --- |
| C[C@H](NC(=O)c1nc2ccccc2nc1O)C(=O)N1CCC(Oc2ccc(Cl)cc2)CC1 [Example 1, N-{(1S)-2-[4-(4-Chlorophenoxy)piperidin-1-yl]-1-methyl-2-oxoethyl}-3-hydroxyquinoxaline-2-carboxamide] | 8.4 nM |
| C[C@H](NC(=O)c1nc2ccccc2nc1O)C(=O)N1CCC(Oc2ccc(F)cc2)CC1 [Example 2, N-{(1S)-2-[4-(4-Fluorophenoxy)piperidin-1-yl]-1-methyl-2-oxoethyl}-3-hydroxyquinoxaline-2-carboxamide] | 6.6 nM |
| C[C@H](NC(=O)c1nc2ccccc2nc1O)C(=O)N1CCC(Oc2ccc(F)cc2F)CC1 [Example 3, N-{(1S)-2-[4-(2,4-Difluorophenoxy)piperidin-1-yl]-1-methyl-2-oxoethyl}-3-hydroxyquinoxaline-2-carboxamide] | 3.5 nM |
| C[C@H](NC(=O)c1nc2ccccc2nc1O)C(=O)N1CCC(Oc2ccc(OC(F)(F)F)cc2)CC1 [Example 4, 3-Hydroxy-N-[(1S)-1-methyl-2-oxo-2-{4-[4-(trifluoromethoxy)phenoxy]piperidin-1-yl}ethyl]quinoxaline-2-carboxamide] | 4.7 nM |
| C[C@H](NC(=O)c1nc2ccccc2nc1O)C(=O)N1CCC(Oc2ccc(F)cn2)CC1 [Example 6, N-[(1S)-2-{4-[(5-Fluoropyridin-2-yl)oxy]piperidin-1-yl}-1-methyl-2-oxoethyl]-3-hydroxyquinoxaline-2-carboxamide] | 74 nM |
| CC[C@H](NC(=O)c1nc2ccccc2nc1O)C(=O)N1CCC(Oc2ccc(F)cc2)CC1 [Example 8, N-[(1S)-1-{[4-(4-Fluorophenoxy)piperidin-1-yl]carbonyl}propyl]-3-hydroxyquinoxaline-2-carboxamide] | 1.8 nM |
| CC[C@H](NC(=O)c1nc2ccccc2nc1O)C(=O)N1CCC(Oc2ccc(F)cc2F)CC1 [Example 9, N-[(1S)-1-{[4-(2,4-Difluorophenoxy)piperidin-1-yl]carbonyl}propyl]-3-hydroxyquinoxaline-2-carboxamide] | < 0.6 nM |
| CC[C@H](NC(=O)c1nc2ccccc2nc1O)C(=O)N1CCC(Oc2ccc(OC(F)(F)F)cc2)CC1 [Example 10, 3-Hydroxy-N-[(1S)-1-({4-[4-(trifluoromethoxy)phenoxy]piperidin-1-yl}carbonyl)propyl]quinoxaline-2-carboxamide] | < 0.6 nM |
| CC[C@H](NC(=O)c1nc2ccccc2nc1O)C(=O)N1CCC(Oc2ccc(C#N)cc2)CC1 [Example 11, N-[(1S)-1-{[4-(4-Cyanophenoxy)piperidin-1-yl]carbonyl}propyl]-3-hydroxyquinoxaline-2-carboxamide] | 6.5 nM |
| CC[C@H](NC(=O)c1nc2ccccc2nc1O)C(=O)N1CCC(Oc2ccc(F)cn2)CC1 [Example 12, N-[(1S)-1-({4-[(5-Fluoropyridin-2-yl)oxy]piperidin-1-yl}carbonyl)propyl]-3-hydroxyquinoxaline-2-carboxamide] | 4.2 nM |
| O=C(N[C@H](C(=O)N1CCC(Oc2ccc(F)cc2)CC1)C1CC1)c1nc2ccccc2nc1O [Example 13, N-{(1S)-1-Cyclopropyl-2-[4-(4-fluorophenoxy)piperidin-1-yl]-2-oxoethyl}-3-hydroxyquinoxaline-2-carboxamide] | 5.8 nM |
| O=C(N[C@H](C(=O)N1CCC(Oc2ccc(F)cn2)CC1)C1CC1)c1nc2ccccc2nc1O [Example 14, N-[(1S)-1-Cyclopropyl-2-{4-[(5-fluoropyridin-2-yl)oxy]piperidin-1-yl}-2-oxoethyl]-3-hydroxyquinoxaline-2-carboxamide] | 25 nM |
| CC(C)[C@H](NC(=O)c1nc2ccccc2nc1O)C(=O)N1CCC(Oc2ccc(Cl)cc2)CC1 [Example 15, N-[(1S)-1-{[4-(4-Chlorophenoxy)piperidin-1-yl]carbonyl}-2-methylpropyl]-3-hydroxyquinoxaline-2-carboxamide] | 18 nM |
| CC(C)[C@H](NC(=O)c1nc2ccccc2nc1O)C(=O)N1CCC(Oc2ccc(F)cc2)CC1 [Example 16, N-[(1S)-1-{[4-(4-Fluorophenoxy)piperidin-1-yl]carbonyl}-2-methylpropyl]-3-hydroxyquinoxaline-2-carboxamide] | 7 nM |
| CC(C)[C@H](NC(=O)c1nc2ccccc2nc1O)C(=O)N1CCC(Oc2ccc(OC(F)(F)F)cc2)CC1 [Example 18, 3-Hydroxy-N-[(1S)-2-methyl-1-({4-[4-(trifluoromethoxy)phenoxy]piperidin-1-yl}carbonyl)propyl]quinoxaline-2-carboxamide] | 2.9 nM |
| CC(C)[C@H](NC(=O)c1nc2ccccc2nc1O)C(=O)N1CCC(Oc2ccc(C#N)cc2)CC1 [Example 19, N-[(1S)-1-{[4-(4-Cyanophenoxy)piperidin-1-yl]carbonyl}-2-methylpropyl]-3-hydroxyquinoxaline-2-carboxamide] | 4.7 nM |
| CC(C)[C@H](NC(=O)c1nc2ccccc2nc1O)C(=O)N1CCC(Oc2ccc(F)cc2Br)CC1 [Example 21, N-[(1S)-1-{[4-(2-Bromo-4-fluorophenoxy)piperidin-1-yl]carbonyl}-2-methylpropyl]-3-hydroxyquinoxaline-2-carboxamide] | 0.89 nM |
| CC(C)[C@H](NC(=O)c1nc2ccccc2nc1O)C(=O)N1CCC(Oc2ccc(F)cc2F)CC1 [Example 23, N-[(1S)-1-{[4-(2,4-Difluorophenoxy)piperidin-1-yl]carbonyl}-2-methylpropyl]-3-hydroxyquinoxaline-2-carboxamide] | < 0.6 nM |
| CC(C)[C@H](NC(=O)c1nc2ccccc2nc1O)C(=O)N1CCC(Oc2ccc(Cl)cn2)CC1 [Example 29, N-[(1S)-1-({4-[(5-Chloropyridin-2-yl)oxy]piperidin-1-yl}carbonyl)-2-methylpropyl]-3-hydroxyquinoxaline-2-carboxamide] | 7.2 nM |
| CC(C)[C@H](NC(=O)c1nc2ccccc2nc1O)C(=O)N1CCC(N(C)c2ccc(F)cc2)CC1 [Example 30, N-[(1S)-1-({4-[(4-Fluorophenyl)(methyl)amino]piperidin-1-yl}carbonyl)-2-methylpropyl]-3-hydroxyquinoxaline-2-carboxamide] | 1.7 nM |
| CC(C)[C@H](NC(=O)c1nc2ccccc2nc1O)C(=O)N1CCC(Nc2ccc(F)cn2)CC1 [Example 34, N-[(1S)-1-({4-[(5-Fluoropyridin-2-yl)amino]piperidin-1-yl}carbonyl)-2-methylpropyl]-3-hydroxyquinoxaline-2-carboxamide] | 12 nM |
| CC(C)[C@H](NC(=O)c1nc2ccccc2nc1O)C(=O)N1CCC(N(C)c2ccc(F)cn2)CC1 [Example 35, N-[(1S)-1-({4-[(5-Fluoropyridin-2-yl)(methyl)amino]piperidin-1-yl}carbonyl)-2-methylpropyl]-3-hydroxyquinoxaline-2-carboxamide] | < 0.6 nM |
| CC(C)[C@H](NC(=O)c1nc2ccccc2nc1O)C(=O)N1CCC(Oc2ccc(C(F)(F)F)cn2)CC1 [Example 36, 3-Hydroxy-N-{(1S)-2-methyl-1-[(4-{[5-(trifluoromethyl)pyridin-2-yl]oxy}piperidin-1-yl)carbonyl]propyl}quinoxaline-2-carboxamide] | 1.8 nM |
| CC(C)[C@H](NC(=O)c1nc2ccccc2nc1O)C(=O)N1CCC(Oc2ccc(F)cn2)CC1 [Example 37, N-[(1S)-1-({4-[(5-Fluoropyridin-2-yl)oxy]piperidin-1-yl}carbonyl)-2-methylpropyl]-3-hydroxyquinoxaline-2-carboxamide] | 5.4 nM |
| CC(C)[C@H](NC(=O)c1nc2ccccc2nc1O)C(=O)N1CCC(Sc2ccc(F)cc2)CC1 [Example 45, N-[(1S)-1-({4-[(4-Fluorophenyl)thio]piperidin-1-yl}carbonyl)-2-methylpropyl]-3-hydroxyquinoxaline-2-carboxamide] | 1.3 nM |
